Assay results: patent publication US12202942B2, “Functionalized silicone polymers and methods of making and using the same” (Wilmar Trading Pte. Ltd., priority 2018, dated 2025)

How the values were obtained:
Format in all cases: physicochemical
[1] = Brookfield viscosity of grafted siloxane derivatives
Method: (§1) The reactions were extremely exothermic and needed to be cooled by a dry ice bath once the temperature approached 30° C. For these reactions, an excess amount of terminal olefin substrate was used based on the equivalent weight (eqW) of hydrosiloxane. Reaction progress was monitored by FTIR as both the hydrosilane absorbance (2150 cm-1) and terminal olefin absorbance (1640 cm-1) disappeared while the carbonyl absorbance remained constant (1735 cm-1). Once the reaction was judged complete, the unreacted olefin starting material was removed by vacuum distillation. The resulting organofunctional siloxane oligomers were analyzed without further purification by 1H-NMR spectroscopy.
Into either a 50 or 100 ml three-necked, round-bottomed flask equipped with a magnetic stirrer, a thermocouple with a J-Kem controller, a heating mantle and a short path distillation apparatus with a nitrogen inlet was added the uC10 derivative and the hydrosilane oligomer. In most cases the reaction was run neat, however the uC10MEE-16-based reactions were two phase so that isopropanol (IPOH) was added to compatiblize the reactants. Once the catalyst was added (1 drop) at ambient temperatures, the temperature was carefully monitored. The reaction was gentle warmed by an air gun until about 30° C. when heating was discontinued and a dry ice bath was used to moderate the vigorous exotherm. Once the temperature had stabilized, then the heating mantle was used to hold the reaction temperature at 60° C. for the next few hours. The reaction's progress was easily monitored by FTIR as both the hydrosilane absorbance (2150 cm^−1) and the terminal olefin's absorbance (1640 cm^−1) disappeared while the carbonyl absorbance remained constant (1735 cm^−1). When the reactions were judged complete, they were typically subjected to reduced pressure to remove any excess reagents or solvents. The products were transferred into 2 oz glass bottles and remained liquids except for the uC16MEE-16-based materials that solidified. […]

[2] = Surface tension of grafted siloxane derivatives
Method: as §1

[3] = Solubility in organic solvents

| Viscosity (25° C.) [1] | Surface Tension (20° C.) [2] [mN/m] | Solubility in polar organic solvents (in words) ([3]; polar organic solvents) | Solubility (wt %) MEK ([3]; solvent MEK) [wt %] | Solubility (wt %) Acetone ([3]; solvent acetone) [wt %] | Solubility (wt %) Acetonitrile ([3]; solvent acetonitrile) [wt %] | Solubility (wt %) Ethylene Glycol ([3]; solvent ethylene glycol) [wt %] | Solubility (wt %) Heptanes ([3]; solvent heptanes) [wt %] | Solubility (wt %) Methanol ([3]; solvent methanol) [wt %] | Structure (SMILES) |
| --- | --- | --- | --- | --- | --- | --- | --- | --- | --- |
| 17 | 21.4 | – | – | – | – | – | – | – | COCCOCCOCCOC(=O)CCCCCCCCC[Si](C)(O[Si](C)(C)C)O[Si](C)(C)C [Compound 7] |
| 7.1 | 22.6 | significantly more soluble | >50 | >50 | 13 | 6 | >50 | 17 | COC(=O)CCCCCCCCC[Si](C)(O[Si](C)(C)C)O[Si](C)(C)C [Compound 6] |
| 16 | 20.8 | – | – | – | – | – | – | – | C[Si](C)(C)O[Si](C)(CCCCCCCCCC(=O)OCCC(F)(F)C(F)(F)C(F)(F)C(F)(F)F)O[Si](C)(C)C [Compound 9] |
